Data: the supplement of paper PMC11061612

Legend:
[1] = system: SK-OV-3 (Ovarian Carcinoma); test: combination Emax (second highest fraction inhibited in the dose matrix, 72 h); higher = more inhibition; extreme values may be limits of the assay
Summary of the method: (§1)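 After 24 hours at 37°C and 5% CO2 in 1536-well plates, cells in DMEM/F12 or RPMI plus 10% FBS received two-drug dose matrices for 72 hours. Viability came from CellTiter-Glo 2.0 luminescence and was scaled as inhibition, anchored at 0 by vehicle wells and at 1 by blank wells. Combination Emax is taken as the second-highest inhibition in the matrix, and Bliss excess as the observed combination effect less EA + EB − EA·EB, with EA and EB the single-agent effects.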

[2] = system: Hs-633T (Other Solid Carcinomas); test: as above
Summary of the method: as §1

[3] = system: RT-112 (Bladder Carcinoma); test: as above
Summary of the method: as §1

SIMA (Neuroblastoma) [4] = test: as above
Summary of the method: as §1

NCI-H28 (Mesothelioma) = test: as above
Summary of the method: as §1

[5] = system: SW626 (Colorectal Carcinoma); test: as above
Summary of the method: as §1

[6] = system: HCC-15 (Squamous Cell Lung Carcinoma); test: as above
Summary of the method: as §1

[7] = system: 639-V (Bladder Carcinoma); test: as above
Summary of the method: as §1

[8] = system: LU-139 (Small Cell Lung Carcinoma); test: as above
Summary of the method: as §1

SIMA (Neuroblastoma) [9] = test: Bliss excess, mean over the matrix (fraction); higher = more synergy
Summary of the method: as §1
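Throughout, for Bliss excess, mean over the matrix: after 72 h of two-drug dosing.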

Structure (SMILES) | combination Emax [1] | combination Emax [2] | combination Emax [3] | combination Emax (SIMA (Neuroblastoma) [4]) | combination Emax (NCI-H28 (Mesothelioma)) | combination Emax [5] | combination Emax [6] | combination Emax [7] | combination Emax [8] | Bliss excess (SIMA (Neuroblastoma) [9])
C=CCn1c(=O)c2cnc(Nc3ccc(N4CCN(C)CC4)cc3)nc2n1-c1cccc(C(C)(C)O)n1 [AZD1775] + C1CN(CCC1(C(=O)N[C@@H](CCO)C2=CC=C(C=C2)Cl)N)C3=NC=NC4=C3C=CN4 [Capivasertib] (first compound max 3 µM, partner max 3 µM) | 0.581 | 0.897 | 0.836 | 0.94 | 0.56 | 0.583 | 0.878 | 0.642 | 0.733 | -0.0416
CN(CCO)CC[C@H](CSc1ccccc1)Nc1ccc(S(=O)(=O)NC(=O)c2ccc(N3CCC([C@@H](O)c4ccccc4-c4ccc(Cl)cc4)CC3)cc2)cc1S(=O)(=O)C(F)(F)F [AZD4320] + CCN(CCO)CCCOc1ccc2c(Nc3cc(CC(=O)Nc4cccc(F)c4)[nH]n3)ncnc2c1 [AZD2811] (first compound max 1 µM, 7x7, partner max 1 µM) | 0.178 | 0.54 | 0.913 | 0.971 | 0.416 | 0.825 | 0.966 | 0.303 | 0.914 | 0.0814
Cc1c2c(nn1C)CSCc1cc(n(C)n1)CSc1cc(c3ccccc3c1)OCCCc1c(C(=O)O)n(C)c3c-2c(Cl)ccc13 [AZD5991] + C[C@@H]1COCCN1C2=NC(=NC(=C2)C3(CC3)[S@](=N)(=O)C)C4=C5C=CNC5=NC=C4 [AZD6738] (first compound max 1 µM, 7x7, partner max 10 µM) | 0.556 | 0.938 | 0.958 | 0.98 | 0.533 | 0.632 | 0.297 | 0.452 | 0.446 | 0.024
CN(CCO)CC[C@H](CSc1ccccc1)Nc1ccc(S(=O)(=O)NC(=O)c2ccc(N3CCC([C@@H](O)c4ccccc4-c4ccc(Cl)cc4)CC3)cc2)cc1S(=O)(=O)C(F)(F)F [AZD4320] + Cc1cc2ncnn2cc1Nc1ncc2c(n1)n(C1CCOCC1)c(=O)n2C [AZD7648] (first compound max 1 µM, 7x7, partner max 10 µM) | 0.305 | 0.614 | 0.293 | 0.862 | 0.15 | 0.577 | 0.936 | 0.208 | 0.937 | 0.0256
CN(CCO)CC[C@H](CSc1ccccc1)Nc1ccc(S(=O)(=O)NC(=O)c2ccc(N3CCC([C@@H](O)c4ccccc4-c4ccc(Cl)cc4)CC3)cc2)cc1S(=O)(=O)C(F)(F)F [AZD4320] + CN(C)CCCOc1ccc(-c2ccc3ncc4c(c3c2)n(C2CCOCC2)c(=O)n4C)cn1 [AZD0156] (first compound max 1 µM, 7x7, partner max 1 µM) | 0.346 | 0.163 | 0.188 | 0.848 | 0.163 | 0.573 | 0.936 | 0.19 | 0.923 | -0.14
Cc1c2c(nn1C)CSCc1cc(n(C)n1)CSc1cc(c3ccccc3c1)OCCCc1c(C(=O)O)n(C)c3c-2c(Cl)ccc13 [AZD5991] + CN(C)CCCOc1ccc(-c2ccc3ncc4c(c3c2)n(C2CCOCC2)c(=O)n4C)cn1 [AZD0156] (first compound max 1 µM, 7x7, partner max 1 µM) | 0.342 | 0.276 | 0.876 | 0.398 | 0.194 | 0.223 | 0.303 | 0.239 | 0.21 | 0.0197
Cc1c2c(nn1C)CSCc1cc(n(C)n1)CSc1cc(c3ccccc3c1)OCCCc1c(C(=O)O)n(C)c3c-2c(Cl)ccc13 [AZD5991] + C=CCn1c(=O)c2cnc(Nc3ccc(N4CCN(C)CC4)cc3)nc2n1-c1cccc(C(C)(C)O)n1 [AZD1775] (first compound max 1 µM, partner max 1 µM) | 0.597 | 0.711 | 0.981 | 0.973 | 0.416 | 0.559 | 0.55 | 0.448 | 0.555 | -0.0713
CN(CCO)CC[C@H](CSc1ccccc1)Nc1ccc(S(=O)(=O)NC(=O)c2ccc(N3CCC([C@@H](O)c4ccccc4-c4ccc(Cl)cc4)CC3)cc2)cc1S(=O)(=O)C(F)(F)F [AZD4320] + C1CN(CCC1(C(=O)N[C@@H](CCO)C2=CC=C(C=C2)Cl)N)C3=NC=NC4=C3C=CN4 [Capivasertib] (first compound max 1 µM, 7x7, partner max 3 µM) | 0.369 | 0.298 | 0.147 | 0.814 | 0.159 | 0.643 | 0.923 | 0.154 | 0.912 | -0.0435
CN(C)CCCOc1ccc(-c2ccc3ncc4c(c3c2)n(C2CCOCC2)c(=O)n4C)cn1 [AZD0156] + O=C(c1cc(Cc2n[nH]c(=O)c3ccccc23)ccc1F)N1CCN(C(=O)C2CC2)CC1 [Olaparib] (first compound max 3 µM, partner max 3 µM) | 0.228 | 0.57 | 0.228 | 0.386 | 0.323 | 0.164 | 0.371 | 0.443 | 0.264 | 0.0694
Cc1c2c(nn1C)CSCc1cc(n(C)n1)CSc1cc(c3ccccc3c1)OCCCc1c(C(=O)O)n(C)c3c-2c(Cl)ccc13 [AZD5991] + C[C@@H](Nc1cc(F)cc(F)c1)c1cc(C(=O)N(C)C)cc2c(=O)cc(N3CCOCC3)oc12 [AZD8186] (first compound max 1 µM, 7x7, partner max 3 µM) | 0.424 | 0.268 | 0.89 | 0.218 | 0.298 | 0.223 | 0.203 | 0.421 | 0.174 | -0.0084
CN(CCO)CC[C@H](CSc1ccccc1)Nc1ccc(S(=O)(=O)NC(=O)c2ccc(N3CCC([C@@H](O)c4ccccc4-c4ccc(Cl)cc4)CC3)cc2)cc1S(=O)(=O)C(F)(F)F [AZD4320] + C=CCn1c(=O)c2cnc(Nc3ccc(N4CCN(C)CC4)cc3)nc2n1-c1cccc(C(C)(C)O)n1 [AZD1775] (first compound max 1 µM, partner max 1 µM) | 0.628 | 0.856 | 0.744 | 1 | 0.437 | 0.748 | 0.946 | 0.377 | 0.927 | -0.0156
Cc1c2c(nn1C)CSCc1cc(n(C)n1)CSc1cc(c3ccccc3c1)OCCCc1c(C(=O)O)n(C)c3c-2c(Cl)ccc13 [AZD5991] + CC1(C)CCC(CN2CCN(c3ccc(C(=O)NS(=O)(=O)c4ccc(NCC5CCOCC5)c([N+](=O)[O-])c4)c(Oc4cnc5[nH]ccc5c4)c3)CC2)=C(c2ccc(Cl)cc2)C1 [Venetoclax] (first compound max 1 µM, 7x7, partner max 1 µM) | 0.219 | 0.231 | 0.99 | 0.46 | 0.185 | 0.205 | 0.323 | 0.194 | 0.777 | 0.107
Cc1c2c(nn1C)CSCc1cc(n(C)n1)CSc1cc(c3ccccc3c1)OCCCc1c(C(=O)O)n(C)c3c-2c(Cl)ccc13 [AZD5991] + Cn1cnc2c(F)c(Nc3ccc(Br)cc3Cl)c(C(=O)NOCCO)cc21 [Selumetinib] (first compound max 1 µM, 7x7, partner max 3 µM) | 0.333 | 0.64 | 1 | 0.516 | 0.316 | 0.528 | 0.563 | 0.283 | 0.148 | 0.0879
Cc1c2c(nn1C)CSCc1cc(n(C)n1)CSc1cc(c3ccccc3c1)OCCCc1c(C(=O)O)n(C)c3c-2c(Cl)ccc13 [AZD5991] + CCN(CCO)CCCOc1ccc2c(Nc3cc(CC(=O)Nc4cccc(F)c4)[nH]n3)ncnc2c1 [AZD2811] (first compound max 1 µM, 7x7, partner max 1 µM) | 0.301 | 0.421 | 0.986 | 0.768 | 0.342 | 0.325 | 0.783 | 0.368 | 0.409 | -0.0271
CN(CCO)CC[C@H](CSc1ccccc1)Nc1ccc(S(=O)(=O)NC(=O)c2ccc(N3CCC([C@@H](O)c4ccccc4-c4ccc(Cl)cc4)CC3)cc2)cc1S(=O)(=O)C(F)(F)F [AZD4320] + C[C@@H]1COCCN1C2=NC(=NC(=C2)C3(CC3)[S@](=N)(=O)C)C4=C5C=CNC5=NC=C4 [AZD6738] (first compound max 1 µM, 7x7, partner max 10 µM) | 0.66 | 0.946 | 0.863 | 1 | 0.668 | 0.869 | 0.94 | 0.665 | 0.929 | 0.0068
